Measured values reported in PubChem BioAssay AID328 (DTP/NCI, 2004).
“And” between values parts separate entries of the source, which are not always exact repeats. Identical values can stand only once. Inconclusive results and toxic doses are left out. Rule for the calls: active = survival T/C of 150% or more; inactive = T/C below 125% in these data.

Tested on: BDF1 mice, P388 leukemia ip, median survival T/C
Assay: NCI In Vivo Anticancer Drug Screen. Data for tumor model P388 Leukemia (intraperitoneal) in B6D2F1 (BDF1) mice
Details: endpoint: median survival time, higher = longer survival
Summary of the method: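 Read-out is survival of treated animals expressed relative to the vehicle group, as a T/C ratio.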

[1] = dose: 50.0 mg/kg/injection, schedule: Q01DX009 (ip), vehicle: saline with Tween-80
[2] = dose: 100.0 mg/kg/injection, schedule: Q01DX009 (ip), vehicle: saline with Tween-80
[3] = dose: 200.0 mg/kg/injection, schedule: Q01DX009 (ip), vehicle: saline with Tween-80
[4] = dose: 100.0 mg/kg/injection, schedule: Q04DX003 (ip), vehicle: saline
[5] = dose: 200.0 mg/kg/injection, schedule: Q04DX003 (ip), vehicle: saline
[6] = dose: 400.0 mg/kg/injection, schedule: Q01DX009 (ip), vehicle: saline with Tween-80

Measured: T/C

CCCCCCCCCC(=O)NC(COC1OC(CO)C(O)C(O)C1O)C(O)c1ccccc1 (configuration not stated)
inactive: dose: 25.0 mg/kg/injection, schedule: Q01DX009 (ip), vehicle: suspension in saline 98 % of control | dose: 50.0 mg/kg/injection, schedule: Q01DX009 (ip), vehicle: suspension in saline 108 % of control | dose: 100.0 mg/kg/injection, schedule: Q01DX009 (ip), vehicle: suspension in saline 102 % of control

NCc1cn(C2OC(CO)C(O)C2O)c2ncnc(N)c12 (configuration not stated)
inactive: dose: 1.56 mg/kg/injection, schedule: Q01DX009 (ip), vehicle: saline 91 % of control and 99 % of control | dose: 3.12 mg/kg/injection, schedule: Q01DX009 (ip), vehicle: saline 100 % of control and 123 % of control | dose: 3.12 mg/kg/injection, schedule: Q04DX003 (ip), vehicle: saline 95 % of control | dose: 6.25 mg/kg/injection, schedule: Q04DX003 (ip), vehicle: saline 91 % of control

Oc1ccccc1C=Nc1ccccc1.Oc1ccccc1C=Nc1ccccc1.[Ni+2]
inactive: dose: 25.0 mg/kg/injection, schedule: Q04DX003 (ip), vehicle: saline sonified 100 % of control | dose: 50.0 mg/kg/injection, schedule: Q04DX003 (ip), vehicle: saline sonified 113 % of control

C/C(=N\N(C)C(=S)Nc1ccccc1)c1ccccn1
inactive: [1] 95 % of control | [2] 106 % of control | [3] 98 % of control

CC12CCC(C=C1N1CCOCC1)C(C)(C)O2 (configuration not stated)
inactive: dose: 50.0 mg/kg/injection, schedule: Q01DX005 (ip), vehicle: saline 114 % of control | dose: 100.0 mg/kg/injection, schedule: Q01DX005 (ip), vehicle: saline 122 % of control | dose: 200.0 mg/kg/injection, schedule: Q01DX005 (ip), vehicle: saline 111 % of control

O=C(Nc1ccc2c(c1)OCO2)O/N=C\c1ccccn1
inactive: dose: 100.0 mg/kg/injection, schedule: Q04DX003 (ip), vehicle: saline with Tween-80 118 % of control | dose: 200.0 mg/kg/injection, schedule: Q04DX003 (ip), vehicle: saline with Tween-80 95 % of control | dose: 400.0 mg/kg/injection, schedule: Q04DX003 (ip), vehicle: saline with Tween-80 100 % of control

CCCCCC[n+]1cccc(C(N)=O)c1
inactive: dose: 50.0 mg/kg/injection, schedule: Q04DX003 (ip), vehicle: saline 104 % of control | [4] 100 % of control | [5] 95 % of control

ClC1=C(Cl)C(Cl)(C2(Cl)C(Cl)=C(Cl)C(Cl)=C2Cl)C(Cl)=C1Cl
inactive: dose: 100.0 mg/kg/injection, schedule: Q01DX009 (ip), vehicle: gum acacia 123 % of control | dose: 100.0 mg/kg/injection, schedule: Q04DX003 (ip), vehicle: gum acacia 108 % of control | dose: 200.0 mg/kg/injection, schedule: Q04DX003 (ip), vehicle: gum acacia 116 % of control | dose: 400.0 mg/kg/injection, schedule: Q04DX003 (ip), vehicle: gum acacia 104 % of control

COc1cc2ccc(CN3CCCC3C(=O)OCc3ccccc3)cc2cc1OC (configuration not stated)
inactive: [2] 100 % of control | [4] 109 % of control | [3] 104 % of control | [5] 118 % of control | [6] 116 % of control | dose: 400.0 mg/kg/injection, schedule: Q04DX003 (ip), vehicle: saline 100 % of control

N#CCCN(C(=S)Nc1ccc(Cl)c(Cl)c1)C1CCCCC1
inactive: [1] 98 % of control and 117 % of control | [2] 100 % of control and 119 % of control | [3] 103 % of control and 119 % of control | [6] 106 % of control

c1cc[c]([Pb]([c]2ccccc2)([c]2ccccc2)[n]2ccc3ccccc32)cc1
inactive: dose: 0.78 mg/kg/injection, schedule: Q01DX009 (ip), vehicle: saline 100 % of control | dose: 1.05 mg/kg/injection, schedule: Q01DX009 (ip), vehicle: Klucel (hydroxypropylcellulose) (HPC) 103 % of control | dose: 1.05 mg/kg/injection, schedule: Q01DX009 (ip), vehicle: other 108 % of control | dose: 2.05 mg/kg/injection, schedule: Q01DX009 (ip), vehicle: saline 115 % of control | dose: 2.08 mg/kg/injection, schedule: Q01DX009 (ip), vehicle: Klucel (hydroxypropylcellulose) (HPC) 94 % of control | dose: 2.08 mg/kg/injection, schedule: Q01DX009 (ip), vehicle: other 108 % of control and 109 % of control | dose: 3.12 mg/kg/injection, schedule: Q01DX009 (ip), vehicle: Klucel (hydroxypropylcellulose) (HPC) 108 % of control | dose: 3.12 mg/kg/injection, schedule: Q01DX009 (ip), vehicle: other 100 % of control | dose: 4.68 mg/kg/injection, schedule: Q01DX009 (ip), vehicle: Klucel (hydroxypropylcellulose) (HPC) 109 % of control

Nc1ncnc2c1ncn2C1(CO)OC(CO)C(O)C1O (configuration not stated)
inactive: dose: 100.0 mg/kg/injection, schedule: Q01DX009 (ip), vehicle: Klucel (hydroxypropylcellulose) (HPC) 106 % of control | dose: 200.0 mg/kg/injection, schedule: Q01DX009 (ip), vehicle: Klucel (hydroxypropylcellulose) (HPC) 115 % of control | dose: 400.0 mg/kg/injection, schedule: Q01DX009 (ip), vehicle: Klucel (hydroxypropylcellulose) (HPC) 103 % of control

O=NN(CCCl)C(=O)NC1CCCCC1
inactive: dose: 2.4 mg/kg/injection, schedule: Q01DX009 (ip), vehicle: Klucel (hydroxypropylcellulose) (HPC) 116 % of control | dose: 4.0 mg/kg/injection, schedule: Q01DX009 (ip), vehicle: saline with Tween-80 113 % of control | dose: 30.0 mg/kg/injection, schedule: Q01DX001 (ip), vehicle: saline 103 % of control | dose: 35.0 mg/kg/injection, schedule: Q01DX009 (ip), vehicle: Klucel (hydroxypropylcellulose) (HPC) 103 % of control | dose: 50.0 mg/kg/injection, schedule: Q01DX001 (ip), vehicle: Klucel (hydroxypropylcellulose) (HPC) 113 % of control | dose: 64.0 mg/kg/injection, schedule: Q01DX009 (ip), vehicle: saline with Tween-80 88 % of control
active: dose: 3.6 mg/kg/injection, schedule: Q01DX009 (ip), vehicle: Klucel (hydroxypropylcellulose) (HPC) 164 % of control | dose: 8.0 mg/kg/injection, schedule: Q01DX009 (ip), vehicle: saline with Tween-80 229 % of control | dose: 12.5 mg/kg/injection, schedule: Q01DX009 (ip), vehicle: Klucel (hydroxypropylcellulose) (HPC) 153 % of control | dose: 12.5 mg/kg/injection, schedule: Q01DX009 (ip), vehicle: saline 178 % of control | dose: 16.0 mg/kg/injection, schedule: Q01DX009 (ip), vehicle: Klucel (hydroxypropylcellulose) (HPC) 249 % of control | dose: 16.0 mg/kg/injection, schedule: Q01DX009 (ip), vehicle: saline with Tween-80 283 % of control | dose: 25.0 mg/kg/injection, schedule: Q01DX001 (ip), vehicle: Klucel (hydroxypropylcellulose) (HPC) 220 % of control | dose: 25.0 mg/kg/injection, schedule: Q01DX009 (ip), vehicle: saline 228 % of control | dose: 32.0 mg/kg/injection, schedule: Q01DX009 (ip), vehicle: saline with Tween-80 179 % of control | dose: 40.0 mg/kg/injection, schedule: Q01DX001 (ip), vehicle: saline 548 % of control and 183 % of control | dose: 50.0 mg/kg/injection, schedule: Q01DX001 (ip), vehicle: saline 174 % of control | dose: 60.0 mg/kg/injection, schedule: Q01DX001 (oral), vehicle: carboxymethylcellulose (CMC) 526 % of control and 166 % of control | dose: 70.0 mg/kg/injection, schedule: Q01DX001 (ip), vehicle: saline 256 % of control | dose: 90.0 mg/kg/injection, schedule: Q01DX001 (oral), vehicle: carboxymethylcellulose (CMC) 210 % of control and 219 % of control | dose: 100.0 mg/kg/injection, schedule: Q01DX001 (ip), vehicle: carboxymethylcellulose (CMC) 219 % of control | dose: 135.0 mg/kg/injection, schedule: Q01DX001 (oral), vehicle: carboxymethylcellulose (CMC) 173 % of control | dose: 150.0 mg/kg/injection, schedule: Q01DX001 (ip), vehicle: carboxymethylcellulose (CMC) 526 % of control | dose: 200.0 mg/kg/injection, schedule: Q01DX001 (oral), vehicle: carboxymethylcellulose (CMC) 236 % of control

C=C1[C@@H](O)[C@]2(O)OC[C@@]34[C@H]1[C@@H](OC(=O)C(C)CC)C(=O)O[C@@H]3C[C@H]1C(C)=CC(=O)[C@@H](O)[C@]1(C)[C@@H]24 (some centres not stated)
active: dose: 0.5 mg/kg/injection, schedule: Q01DX009 (ip), vehicle: saline with Tween-80 184 % of control | dose: 1.0 mg/kg/injection, schedule: Q01DX009 (ip), vehicle: saline with Tween-80 159 % of control | dose: 1.0 mg/kg/injection, schedule: Q01DX009 (ip), vehicle: saline 153 % of control | dose: 2.0 mg/kg/injection, schedule: Q01DX009 (ip), vehicle: saline with Tween-80 178 % of control | dose: 4.0 mg/kg/injection, schedule: Q01DX009 (ip), vehicle: saline 166 % of control
inactive: dose: 8.0 mg/kg/injection, schedule: Q01DX009 (ip), vehicle: saline 95 % of control
